Each compound was assayed on batrachotoxin (BTX) binding site of the sodium channel (assay: Affinity for the batrachotoxin (BTX) binding site of the sodium channel, [3H]-batrachotoxinin A20 α-benzoate, rat cerebrocortex synaptosomes). Settings: test concentration not given.
For `O=C(NC(=S)N1CCc2onc(C(=O)NCCN3CCCC3)c2C1)c1ccccc1` [Example 128, 5-benzoylaminocarbothioyl-4,5,6,7-tetrahydro-isoxazolo[4,5-c]pyridine-3-carboxylic acid (2-pyrrolidin-1-yl-ethyl) amide], the “BTX inhibition (rat) % inhibition” value was 74%.
`O=C(NCC1CC1)c1noc2c1CN(C(=S)NCc1ccc(Cl)cc1)CC2` [Example 129, 5-(4-chloro-benzylthiocarbamoyl)-4,5,6,7-tetrahydro-isoxazolo[4,5-c]pyridine-3-carboxylic acid cyclopropylmethyl amide] was tested, and the “BTX inhibition (rat) % inhibition” value was 53%.
With `COCCNC(=S)N1CCc2onc(C(=O)NCCc3ccccc3)c2C1` [Example 130, 5-(2-methoxy-ethylthiocarbamoyl)-4,5,6,7-tetrahydro-isoxazolo[4,5-c]pyridine-3-carboxylic acid phenethyl amide] the “BTX inhibition (rat) % inhibition” value was 68%.
For `O=C(NCCc1ccccc1)c1noc2c1CN(C(=S)Nc1c(F)c(F)c(F)c(F)c1F)CC2` [Example 131, 5-pentafluorophenylthiocarbamoyl-4,5,6,7-tetrahydro-isoxazolo[4,5-c]pyridine-3-carboxylic acid phenethyl amide], the “BTX inhibition (rat) % inhibition” value was 58%.
`CC(NC(=S)N1CCc2onc(C(=O)NCCc3ccccc3)c2C1)c1ccccc1` (centres unmarked) [Example 132, 5-(1-phenyl-ethylthiocarbamoyl)-4,5,6,7-tetrahydro-isoxazolo[4,5-c]pyridine-3-carboxylic acid phenethyl amide] was tested, and the “BTX inhibition (rat) % inhibition” value was 90%.
With `CCOC(=O)CCNC(=O)c1noc2c1CN(C(=S)NCC1CCCCC1)CC2` [Example 134, 3-{[5-(cyclohexylmethyl-thiocarbamoyl)-4,5,6,7-tetrahydro-isoxazolo[4,5-c]pyridine-3-carbonyl]-amino}-propionic acid ethyl ester] the “BTX inhibition (rat) % inhibition” value was 55%.
`O=C(Nc1ccccc1)c1noc2c1CN(Cc1ccc3ccccc3c1Br)CC2` [Example 135, 5-(1-bromo-naphthalen-2-ylmethyl)-4,5,6,7-tetrahydro-isoxazolo[4,5-c]pyridine-3-carboxylic acid phenyl amide] was tested, and the “BTX inhibition (rat) % inhibition” value was 61%.
With `O=C(c1noc2c1CN(S(=O)(=O)c1ccc(Cl)c(Cl)c1)CC2)N1CCN(c2nccs2)CC1` [Example 140, (5-(3,4-dichlorophenylsulfonyl)-4,5,6,7-tetrahydroisoxazolo[4,5-c]pyridin-3-yl)(4-(thiazol-2-yl)piperazin-1-yl)methanone] the “BTX inhibition (rat) % inhibition” value was 55%.
With `Cc1cc(C)c(S(=O)(=O)N2CCc3onc(C(=O)N4CCN(c5nccs5)CC4)c3C2)c(C)c1` [Example 141, (5-(mesitylsulfonyl)-4,5,6,7-tetrahydroisoxazolo[4,5-c]pyridin-3-yl)(4-(thiazol-2-yl)piperazin-1-yl)methanone] the “BTX inhibition (rat) % inhibition” value was 67%.
`O=C(c1noc2c1CN(S(=O)(=O)c1cccc3ccccc13)CC2)N1CCN(c2nccs2)CC1` [Example 142, (5-(naphthalen-1-ylsulfonyl)-4,5,6,7-tetrahydroisoxazolo[4,5-c]pyridin-3-yl)(4-(thiazol-2-yl)piperazin-1-yl)methanone] was tested, and the “BTX inhibition (rat) % inhibition” value was 54%.
For `O=C(c1noc2c1CN(S(=O)(=O)c1ccc3ccccc3c1)CC2)N1CCN(c2nccs2)CC1` [Example 143, (5-(naphthalen-2-ylsulfonyl)-4,5,6,7-tetrahydroisoxazolo[4,5-c]pyridin-3-yl)(4-(thiazol-2-yl)piperazin-1-yl)methanone], the “BTX inhibition (rat) % inhibition” value was 48%.
For `Cc1cc(C)c(S(=O)(=O)N2CCc3onc(C(=O)N4CCC(CCN5CCCC5)CC4)c3C2)c(C)c1` [Example 146, (5-(mesitylsulfonyl)-4,5,6,7-tetrahydroisoxazolo[4,5-c]pyridin-3-yl)(4-(2-(pyrrolidin-1-yl)ethyl)piperidin-1-yl)methanone], the “BTX inhibition (rat) % inhibition” value was 81%.
In the case of `O=C(c1noc2c1CN(S(=O)(=O)c1ccc(Cl)c(Cl)c1)CC2)N1CCC(CCN2CCCC2)CC1` [Example 147, (5-(3,4-dichlorophenylsulfonyl)-4,5,6,7-tetrahydroisoxazolo[4,5-c]pyridin-3-yl)(4-(2-(pyrrolidin-1-yl)ethyl)piperidin-1-yl)methanone], the “BTX inhibition (rat) % inhibition” value is reported as 70%.
For `O=C(c1noc2c1CN(S(=O)(=O)c1ccc3ccccc3c1)CC2)N1CCC(CCN2CCCC2)CC1` [Example 148, (5-(naphthalen-2-ylsulfonyl)-4,5,6,7-tetrahydroisoxazolo[4,5-c]pyridin-3-yl)(4-(2-(pyrrolidin-1-yl)ethyl)piperidin-1-yl)methanone], the “BTX inhibition (rat) % inhibition” value was 74%.
In the case of `Cl.O=C(c1noc2c1CN(S(=O)(=O)c1cccc3ccccc13)CC2)N1CCC(CCN2CCCC2)CC1` [Example 149, (5-(Naphthalene-1-ylsulfonyl)-4,5,6,7-tetrahydroisoxazolo[4,5-c]pyridin-3-yl)(4-(2-(pyrrolidin-1-yl)ethyl)piperidin-1-yl)methanone hydrochloride], the “BTX inhibition (rat) % inhibition” value is reported as 86%.
In the case of `CC(NC(=O)N1CCc2onc(C(=O)NCc3ccccc3)c2C1)c1ccccc1` (centres unmarked) [Example 150, N^3-benzyl-N^5-(1-phenylethyl)-6,7-dihydroisoxazolo[4,5-c]pyridine-3,5(4H)-dicarboxamide], the “BTX inhibition (rat) % inhibition” value is reported as 49%.
With `COc1ccc(NC(=O)N2CCc3onc(C(=O)NCc4ccccc4)c3C2)cc1` [Example 151, N^3-benzyl-N^5-(4-methoxyphenyl)-6,7-dihydroisoxazolo[4,5-c]pyridine-3,5(4H)-dicarboxamide] the “BTX inhibition (rat) % inhibition” value was 36%.
For `Cc1ccc(NC(=O)c2noc3c2CN(S(=O)(=O)c2ccc(C)cc2)CC3)cc1` [Example 152, N-p-tolyl-5-tosyl-4,5,6,7-tetrahydroisoxazolo[4,5-c]pyridine-3-carboxamide], the “BTX inhibition (rat) % inhibition” value was 29%.
For `COCCNC(=O)c1noc2c1CN(C(=O)c1ccc(C(F)(F)F)c(F)c1)CC2` [Example 153, 5-(3-fluoro-4-(trifluoromethyl)benzoyl)-N-(2-methoxyethyl)-4,5,6,7-tetrahydroisoxazolo[4,5-c]pyridine-3-carboxamide], the “BTX inhibition (rat) % inhibition” value was 28%.
In the case of `COc1ccc(NC(=O)N2CCc3onc(C(=O)NCc4ccc(S(N)(=O)=O)cc4)c3C2)cc1` [Example 154, N^5-(4-methoxyphenyl)-N^3-(4-sulfamoylbenzyl)-6,7-dihydroisoxazolo[4,5-c]pyridine-3,5(4H)-dicarboxamide], the “BTX inhibition (rat) % inhibition” value is reported as 4%.
For `O=C(NCCN1CCCC1)c1noc2c1CN(C(=O)COc1cccc(Cl)c1)CC2` [Example 155, 5-(2-(3-chlorophenoxy)acetyl)-N-(2-(pyrrolidin-1-yl)ethyl)-4,5,6,7-tetrahydroisoxazolo[4,5-c]pyridine-3-carboxamide], the “BTX inhibition (rat) % inhibition” value was 64%.
With `O=C(Nc1ccccc1)c1noc2c1CN(C(=O)c1ccccc1F)CC2` [Example 156, 5-(2-fluorobenzoyl)-N-phenyl-4,5,6,7-tetrahydroisoxazolo[4,5-c]pyridine-3-carboxamide] the “BTX inhibition (rat) % inhibition” value was 26%.
For `Cc1ccc(S(=O)(=O)N2CCc3onc(C(=O)NCc4ccc(S(N)(=O)=O)cc4)c3C2)cc1` [Example 157, N-(4-sulfamoylbenzyl)-5-tosyl-4,5,6,7-tetrahydroisoxazolo[4,5-c]pyridine-3-carboxamide], the “BTX inhibition (rat) % inhibition” value was 17%.
